Activity calls are given as the source filed them. The calls are words filed in the database; no cut-off is given here.
Biological target: T1, Baculoviral IAP repeat-containing protein 2/Estrogen receptor (Homo sapiens) (UniProt P03372+Q13490)
Assay: Binding affinity to cIAP1/ERalpha in human MCF7 cells assessed as proteasomal degradation of ERalpha after 6 hrs by Western blot analysis in presence of proteasome inhibitor MG132
Type: cell-based

Row | Structure (SMILES) | Activity
1 | CCC(=C(c1ccc(O)cc1)c1ccc(OCCN(C)C(=O)CCCCCCNC(=O)[C@H](CC(C)C)NC(=O)[C@@H](O)[C@H](N)Cc2ccccc2)cc1)c1ccccc1 | inactive
2 | CCC(=C(c1ccc(O)cc1)c1ccc(OCCN(C)C(=O)CCNC(=O)[C@H](CC(C)C)NC(=O)[C@@H](O)[C@H](N)Cc2ccccc2)cc1)c1ccccc1 | inactive
3 | CCC(=C(c1ccc(O)cc1)c1ccc(OCCN(C)C(=O)CCCCNC(=O)[C@H](CC(C)C)NC(=O)[C@@H](O)[C@H](N)Cc2ccccc2)cc1)c1ccccc1 | inactive

Biological target: T1, Baculoviral IAP repeat-containing protein 2/Estrogen receptor (Homo sapiens)
Assay: Binding affinity to cIAP1/ERalpha in human MCF7 cells assessed as proteasomal degradation of ERalpha at 10 to 30 uM after 6 hrs by Western blot analysis
Type: cell-based

Row | Structure (SMILES) | Activity
4 | CCC(=C(c1ccc(O)cc1)c1ccc(OCCN(C)C(=O)CCCCCCNC(=O)[C@H](CC(C)C)NC(=O)[C@@H](O)[C@H](N)Cc2ccccc2)cc1)c1ccccc1 | Active
5 | CCC(=C(c1ccc(O)cc1)c1ccc(OCCN(C)C(=O)CCNC(=O)[C@H](CC(C)C)NC(=O)[C@@H](O)[C@H](N)Cc2ccccc2)cc1)c1ccccc1 | Active
6 | CCC(=C(c1ccc(O)cc1)c1ccc(OCCN(C)C(=O)CCCCNC(=O)[C@H](CC(C)C)NC(=O)[C@@H](O)[C@H](N)Cc2ccccc2)cc1)c1ccccc1 | Active
